Where two headings read alike, the source gives them in different places.
Assays:
CSF1R enzyme = CSF1R enzyme (Homo sapiens (Human), UniProt P07333); test: CSF1R enzymatic inhibitory assay (Z'-LYTE, FRET); assay type: biochemical; details: Z'-LYTE assay platform, 10-point titrations in duplicates, ATP equal to Km
[1] = molecular target: CSF1R in bone-marrow derived macrophages from mice (Mus musculus (Mouse), UniProt P09581); test: Effect of CSF1R inhibitors on MAPK signalling in mouse bone-marrow derived macrophages; assay type: cell-based; details: for BMDM fold relative to PLX3397: Fold change: IC50 inhibitor/IC50 PLX3397, mouse BMDM
Sequence of CSF1R in bone-marrow derived macrophages from mice (P09581 20-977): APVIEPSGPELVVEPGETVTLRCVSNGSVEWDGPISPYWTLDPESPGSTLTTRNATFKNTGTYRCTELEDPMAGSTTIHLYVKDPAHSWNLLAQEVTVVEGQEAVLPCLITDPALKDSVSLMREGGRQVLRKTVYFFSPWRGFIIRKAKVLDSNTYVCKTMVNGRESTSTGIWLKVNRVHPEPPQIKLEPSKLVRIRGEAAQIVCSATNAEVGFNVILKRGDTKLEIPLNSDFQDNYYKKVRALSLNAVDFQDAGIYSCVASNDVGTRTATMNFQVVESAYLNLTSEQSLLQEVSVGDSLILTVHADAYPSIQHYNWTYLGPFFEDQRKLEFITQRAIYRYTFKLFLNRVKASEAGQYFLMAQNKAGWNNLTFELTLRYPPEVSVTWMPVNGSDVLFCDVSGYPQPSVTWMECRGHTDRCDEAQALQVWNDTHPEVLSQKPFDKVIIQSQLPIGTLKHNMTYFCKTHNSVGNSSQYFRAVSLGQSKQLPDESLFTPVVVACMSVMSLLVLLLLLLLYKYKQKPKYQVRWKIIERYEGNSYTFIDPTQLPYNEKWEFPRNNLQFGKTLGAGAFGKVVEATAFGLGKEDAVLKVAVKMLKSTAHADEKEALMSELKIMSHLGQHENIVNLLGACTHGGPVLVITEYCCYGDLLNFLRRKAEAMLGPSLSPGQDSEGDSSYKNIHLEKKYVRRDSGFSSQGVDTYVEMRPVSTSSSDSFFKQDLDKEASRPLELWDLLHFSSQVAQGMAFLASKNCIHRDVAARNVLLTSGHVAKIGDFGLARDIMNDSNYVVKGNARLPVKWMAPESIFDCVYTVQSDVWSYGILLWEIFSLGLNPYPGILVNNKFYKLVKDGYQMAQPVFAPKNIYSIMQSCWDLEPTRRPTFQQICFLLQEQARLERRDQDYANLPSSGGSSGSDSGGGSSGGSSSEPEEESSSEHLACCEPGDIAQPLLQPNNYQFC

Sequence of CSF1R enzyme (P07333 20-972): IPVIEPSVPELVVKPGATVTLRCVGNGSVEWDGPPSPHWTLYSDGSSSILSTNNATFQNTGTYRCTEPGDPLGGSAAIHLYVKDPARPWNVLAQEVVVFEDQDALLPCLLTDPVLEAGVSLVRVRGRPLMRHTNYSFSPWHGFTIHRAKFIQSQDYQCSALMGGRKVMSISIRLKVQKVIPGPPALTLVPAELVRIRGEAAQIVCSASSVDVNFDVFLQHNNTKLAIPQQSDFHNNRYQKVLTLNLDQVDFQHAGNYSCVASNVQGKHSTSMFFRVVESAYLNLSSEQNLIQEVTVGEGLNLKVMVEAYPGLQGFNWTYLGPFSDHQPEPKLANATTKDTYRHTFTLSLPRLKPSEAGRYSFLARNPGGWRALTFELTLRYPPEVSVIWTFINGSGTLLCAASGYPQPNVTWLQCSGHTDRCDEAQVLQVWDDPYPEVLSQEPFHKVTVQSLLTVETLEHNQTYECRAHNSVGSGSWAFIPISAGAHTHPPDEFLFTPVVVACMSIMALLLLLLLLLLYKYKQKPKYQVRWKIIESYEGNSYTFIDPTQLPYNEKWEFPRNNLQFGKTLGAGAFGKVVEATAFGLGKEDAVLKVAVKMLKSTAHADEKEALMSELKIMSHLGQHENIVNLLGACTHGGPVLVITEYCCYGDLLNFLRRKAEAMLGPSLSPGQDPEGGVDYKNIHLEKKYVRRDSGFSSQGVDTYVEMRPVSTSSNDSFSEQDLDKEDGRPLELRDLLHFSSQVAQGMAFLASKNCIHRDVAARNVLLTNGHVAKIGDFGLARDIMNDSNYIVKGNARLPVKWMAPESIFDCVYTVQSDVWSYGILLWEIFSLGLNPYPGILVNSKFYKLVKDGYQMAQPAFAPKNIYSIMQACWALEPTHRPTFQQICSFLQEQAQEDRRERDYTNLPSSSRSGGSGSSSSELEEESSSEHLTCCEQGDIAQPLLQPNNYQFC

SMILES	IC50 (CSF1R enzyme) [nM]	BMDM fold relative to PLX3397 [1] [fold]	IC50 ([1]; read-out: BMDM IC50) [nM]	IC50 [1] [nM]
OCc1ccc(-c2cc3c(Cc4ccccc4)ncnc3[nH]2)cc1 [Compound 5a, (4-(4-Benzyl-7H-pyrrolo[2,3-d]pyrimidin-6-yl)phenyl)methanol]	1.3	1	130	–
OCc1ccc(-c2cc3c(Cc4ccccc4F)ncnc3[nH]2)cc1 [Compound 5b, (4-(4-(2-Fluorobenzyl)-7H-pyrrolo[2,3-d]pyrimidin-6-yl)phenyl)methanol]	0.7	5	487	–
OCc1ccc(-c2cc3c(Cc4cccc(F)c4)ncnc3[nH]2)cc1 [Compound 5c, (4-(4-(3-Fluorobenzyl)-7H-pyrrolo[2,3-d]pyrimidin-6-yl)phenyl)methanol]	1.9	>5	> 500	–
OCc1ccc(-c2cc3c(Cc4ccc(F)cc4)ncnc3[nH]2)cc1 [Compound 5d, (4-(4-(4-Fluorobenzyl)-7H-pyrrolo[2,3-d]pyrimidin-6-yl)phenyl)methanol]	3.1	4.1	320	–
Cc1ccc(Cc2ncnc3[nH]c(-c4ccc(CO)cc4)cc23)cc1 [Compound 5e, (4-(4-(4-Methylbenzyl)-7H-pyrrolo[2,3-d]pyrimidin-6-yl)phenyl)methanol]	1	>3	> 300	–
CC(C)c1ccc(Cc2ncnc3[nH]c(-c4ccc(CO)cc4)cc23)cc1 [Compound 5f, (4-(4-(4-Isopropylbenzyl)-7H-pyrrolo[2,3-d]pyrimidin-6-yl)phenyl)methanol]	0.6	0.8	71	–
CC(C)(C)c1ccc(Cc2ncnc3[nH]c(-c4ccc(CO)cc4)cc23)cc1 [Compound 5g, (4-(4-(4-(tert-Butyl)benzyl)-7H-pyrrolo[2,3-d]pyrimidin-6-yl)phenyl)methanol]	1.6	1.7	174	–
OCc1ccc(-c2cc3c(Cc4ccc(C(F)(F)F)cc4)ncnc3[nH]2)cc1 [Compound 5h, (4-(4-(4-(Trifluoromethyl)benzyl)-7H-pyrrolo[2,3-d]pyrimidin-6-yl)phenyl)methanol]	3.6	>5	> 500	–
CC(c1ccccc1)c1ncnc2[nH]c(-c3ccc(CO)cc3)cc12 (centres unmarked) [Compound 5i, (4-(4-(1-Phenylethyl)-7H-pyrrolo[2,3-d]pyrimidin-6-yl)phenyl)methanol]	3.8	>5	> 500	–
CCC(c1ccccc1)c1ncnc2[nH]c(-c3ccc(CO)cc3)cc12 (centres unmarked) [Compound 5j, (4-(4-(1-Phenylpropyl)-7H-pyrrolo[2,3-d]pyrimidin-6-yl)phenyl)methanol]	29	>5	> 500	–
OCc1ccc(-c2cc3c(C(F)c4ccccc4)ncnc3[nH]2)cc1 (centres unmarked) [Compound 5k, (4-(4-(Fluoro(phenyl)methyl)-7H-pyrrolo[2,3-d]pyrimidin-6-yl)phenyl)methanol]	2.7	1.3	100	–
OCc1ccc(-c2cc3c(Oc4ccccc4)ncnc3[nH]2)cc1 [Compound 9, (4-(4-Phenoxy-7H-pyrrolo[2,3-d]pyrimidin-6-yl)phenyl)methanol]	1.5	1	107	–
COc1ccc(-c2cc3c(Cc4ccccc4)ncnc3[nH]2)cc1 [Compound 10, 4-Benzyl-6-(4-methoxyphenyl)-7H-pyrrolo[2,3-d]pyrimidine]	11	–	–	–
CS(=O)(=O)Nc1ccc(-c2cc3c(Cc4ccccc4)ncnc3[nH]2)cc1 [Compound 14, N-(4-(4-Benzyl-7H-pyrrolo[2,3-d]pyrimidin-6-yl)phenyl)methanesulfonamide]	2.1	–	–	–
c1ccc(Cc2ncnc3[nH]c(-c4ccccc4)cc23)cc1 [Compound 15, 4-Benzyl-6-phenyl-7H-pyrrolo[2,3-d]pyrimidine]	7.2	–	–	–
CNS(=O)(=O)c1ccc(-c2cc3c(Cc4ccccc4)ncnc3[nH]2)cc1 [Compound 16, 4-(4-Benzyl-7H-pyrrolo[2,3-d]pyrimidin-6-yl)-N-methylbenzenesulfonamide]	1.7	–	–	–
CC(C)n1cc(-c2cc3c(Cc4ccccc4)ncnc3[nH]2)cn1 [Compound 17, 4-Benzyl-6-(1-isopropyl-1H-pyrazol-4-yl)-7H-pyrrolo[2,3-d]pyrimidine]	2	–	–	–
Cc1nn(C)cc1-c1cc2c(Cc3ccccc3)ncnc2[nH]1 [Compound 18, 4-Benzyl-6-(1,3-dimethyl-1H-pyrazol-4-yl)-7H-pyrrolo[2,3-d]pyrimidine]	0.4	–	–	–
CP(C)(=O)c1ccc(-c2cc3c(Cc4ccccc4)ncnc3[nH]2)cc1 [Compound 19, (4-(4-Benzyl-7H-pyrrolo[2,3-d]pyrimidin-6-yl)phenyl)dimethylphosphine oxide]	1.5	–	–	–
FC(F)(F)c1ccc(CNc2ccc(Cc3c[nH]c4ncc(Cl)cc34)cn2)cn1 [PLX3397, reference compound]	–	–	–	70 to 150
